Laboratory results published in patent US8822517B2, “Arylosulfonamides for the treatment of CNS diseases” (Adamed SP. Z O.O., priority 2010, dated 2014).

Tested on: C57BL/6J mice
Assay: Tail suspension test in C57BL/6J mice
Assay type: in vivo

Cc1cccc(S(=O)(=O)NCCCN2CCC(c3noc4cc(F)ccc34)CC2)c1 [Compound 22, N-[3-[4-(6-Fluoro-1,2-benzoxazol-3-yl)piperidin-1-yl]propyl]-3-methylbenzenesulphonamide]
activity in tail suspension test in mice (mice, antidepressant model): active | MED (tail suspension test in C57BL/6J mice): 0.156 mg/kg
